In brackets after ≈: the same amount, converted by molar mass. Entries after “also recorded” stand apart in the source; their conditions may differ.

One series relates to Blastococcus sp. S21A-2. The class given is cell-based. The following applies: Blastococcus sp. S21A-2, isolated from acne lesions. On the procedure:
(§1) MIC of besifloxacin and other antibiotics molecules were determined by micro broth dilution method as per the Clinical and Laboratory Standards Institute (CLSI) guideline. MIC assay is the determinant of the inherent anti-microbial potency of a particular molecule. For preparing inoculum, bacterial strains were cultured in Brain Heart Infusion Agar (BHIA) at 37° C. for 24 hours. […] For bacterial inoculum, bacterial culture turbidity was adjusted to 0.1 OD at 600 nm in UV-Visual spectrophotometer (approximately 1.5×10^8 cells/ml) and further diluted (100 times with sterile BHI broth). Diluted bacterial suspension (100 μl) was added to each well except sterility control wells (column 12 of 96 well plate). Column 11 of 96 well plate was used as growth control and vehicle control. The plates were incubated at 37° C. for 24 h. The MIC of the test compounds were determined by observing the lowest concentration of test compound that prevented the visual bacterial growth.
(§2) Different skin resident bacteria were isolated from acne lesions of moderate to severe acne patients.

For series [1], the system named is microorganisms that cause gram-negative folliculitis. In words: MIC, summary statements on gram-negative bacteria involved in GNF. The class given is cell-based. The following applies: for Activity against gram-negative bacterial strains involved in GNF (in words): irrespective of response to other conventional antibiotics or quinolones, ampicillin/cefotaxime susceptible and resistant strains. On the procedure: as §1
Besifloxacin HCL was tested against ampicillin and cefotaxime (3rd generation cephalosporin) susceptible and resistant gram-negative bacterial strains involved in GNF (gram negative folliculitis) by broth dilution method as per the Clinical & Laboratory Standards Institutes (CLSI) guidelines. MIC assay was performed in 96 well plates by micro broth dilution method, in 96 well plates, all the wells were added with 100 μl of sterilized Muller Hinton broth No: 2 cation broth (HiMedia, India). The initial stock of test compounds (1 mg/ml) were prepared in dimethyl sulfoxide (DMSO) and further dilutions were made in culture broth to get the desirable concentration. Then 100 μl of broth containing test compounds were initially added to the first column's wells and then serial dilution was performed up to well of 10th column. Wells of 11th and 12th column served as a positive and negative control respectively. Finally, 100 μl of inoculum (0.5 McFarland equal bacterial suspension was 100 times diluted in culture broth) was added to all the wells. Plates were incubated at 37° C. for 18-24 hrs. After incubation, MIC of each test compound was determined by observing the lowest concentration of test compound that has no visual growth compared to growth control. Minimum inhibitory concentration of besifloxacin, ampicillin and cefotaxime against gram negative bacterial strains were shown in Table 1.

Another series deals with Kocuria sp. S18-1. The series can be described thus: MIC against bacteria isolated from acne lesions, Table 2. It is filed as cell-based. The following applies: SP.S181; Kocuria sp. S18-1, isolated from acne lesions; read-out: Minimum Inhibitory Concentration. On the procedure:
as §1, §2

For series [2], the system named is Bacillus megaterium M1-2. The description is as above. The conditions noted are these: Priestia megaterium, M12., read-out: Minimum Inhibitory Concentration. It is filed as cell-based. The protocol: as §1, §2
The next series relates to Microbacterium sp. S20-2. Described as above. The class given is cell-based. The conditions noted are these: Microbacterium sp. S20-2, isolated from acne lesions. The protocol: as §1, §2
A further series deals with S. epidermidis S1-1. Described as above. The conditions noted are these: Staphylococcus epidermidis, S11; S. epidermidis S1-1, isolated from acne lesions; read-out: Minimum Inhibitory Concentration. The class given is cell-based. On the procedure: as §1, §2
A further series concerns K. pneumoniae S6-1. Described as above. It is filed as cell-based. The conditions noted are these: Klebsiella pneumoniae, S61; K. pneumoniae S6-1, isolated from acne lesions; read-out: Minimum Inhibitory Concentration. On the procedure:
as §1, §2

Another series relates to P. avidum S3-1. Described as above. It is filed as cell-based. The conditions noted are these: Cutibacterium avidum, S31; P. avidum S3-1, isolated from acne lesions; read-out: Minimum Inhibitory Concentration. On the procedure: as §1, §2
Series [3] deals with Dermatobacter hominis S11-2. The description is as above. It is filed as cell-based. The conditions noted are these: S112; Dermatobacter hominis S11-2, isolated from acne lesions; read-out: Minimum Inhibitory Concentration. The protocol: as §1, §2
The subject of series [4] is Enterobacter aerogenes M2-1. Described as above. It is filed as cell-based. The following applies: Klebsiella aerogenes, M21; Enterobacter aerogenes M2-1, isolated from acne lesions; read-out: Minimum Inhibitory Concentration. The protocol:
as §1, §2

In series [5] the test system is Staphylococcus haemolyticus M1-1. The series is described as above. The class given is cell-based. The conditions noted are these: M11; Staphylococcus haemolyticus M1-1, isolated from acne lesions; read-out: Minimum Inhibitory Concentration. The protocol: as §1, §2
Series [6] relates to A. baumannii CCARM 12020 (multi-drug resistant, quinolone susceptible). In words: MIC, micro broth dilution (CLSI), Table 1A. The conditions noted are these: Acinetobacter baumannii, CCARM12020. It is filed as cell-based. The protocol: as §1
The subject of series [7] is K. pneumoniae ATCC 13883 (wild type). The series can be described thus: MIC, micro broth dilution (CLSI), Table 1A. The class given is cell-based. The conditions noted are these: Klebsiella pneumoniae, ATCC13883. The protocol: as §1
(In general: Broth dilution looks for growth in wells or tubes with falling amounts of substance.)

For series [8], the system named is E. coli MTCC 1687 (wild type). In words: MIC, micro broth dilution (CLSI), Table 1A. It is filed as cell-based. The conditions noted are these: Escherichia coli, MTCC1687. On the procedure: as §1
For series [9], the system named is A. haumannii ATCC 19606 (wild type). The series can be described thus: MIC, micro broth dilution (CLSI), Table 1A. The class given is cell-based. The conditions noted are these: Acinetobacter baumannii, ATCC19606. On the procedure:
as §1

Series [10] has as its system E. coli ATCC BAA 196 (multi-drug resistant strain). In words: MIC, micro broth dilution (CLSI), Table 1A. The following applies: Escherichia coli, BAA196. The class given is cell-based. The protocol: as §1
Series [11] is described as follows: Skin penetration/retention on human abdominal skin, Franz-type diffusion cells. The class given is in vitro ADME. The following applies: human epidermal membranes, 12 hr, approximately 10 mg/cm^2 of approximately 1.0% formulation. The protocol: Besifloxacin gel and cream containing suspended besifloxacin were tested for skin retention study on human abdominal skin. Besifloxacin gel and cream were applied over a 12 hr application period. Heat-separated epidermal membranes from a single donor were mounted in horizontal Franz-type diffusion cells (exposed surface area 1.33 cm2) over a receptor solution of phosphate buffered saline, pH 7.4 containing 5% ethanol to facilitate solubilisation of any material penetrating the skin. Cells were maintained at 35° C. and receptor solution was stirred throughout. Formulations containing approximately 1.0% besifloxacin w/w and applied at a dose of approximately 10 mg/cm^2. The samples of the receptor solution were taken at times up to 12 hrs and extracts from surface swabs, stratum corneum tape strips and residual epidermis were obtained at the end of the experiment at 12 hrs. All samples were analysed by validated LCMS.
Besifloxacin gel containing suspended besifloxacin was tested for skin retention study on human abdominal skin. Testing procedure was similar to example 27.

Series [12] relates to E. aerogenes M2-1 (clinical isolate). The series can be described thus: MIC, micro broth dilution (CLSI), Table 1A. The class given is cell-based, Enterobacter aerogenes. The following applies: Klebsiella aerogenes. On the procedure:
as §1

In series [13] the test system is E. aerogenes NCIM 5139 (wild type). In words: MIC, micro broth dilution (CLSI), Table 1A. The conditions noted are these: Klebsiella aerogenes, NCIM5139. The class given is cell-based, Enterobacter aerogenes. On the procedure: as §1

Regarding `N[C@@H]1CCCCN(c2c(F)cc3c(=O)c(C(=O)O)cn(C4CC4)c3c2Cl)C1` [Besifloxacin], the results for the “Minimum Inhibitory Concentration” value in the series with Blastococcus sp. S21A-2 and in the series on Microbacterium sp. S20-2 were 0.06 µg/mL and 0.5 µg/mL, respectively. Besides, the “Activity against gram-negative bacterial strains involved in GNF (in words)” value is listed as “very effective; also recorded: efficacious” in [1] and “susceptible” in [1] (listed as besifloxacin). Moreover, the MIC in [1] (range over strains, read-out: MIC of besifloxacin against microorganisms that cause gram-negative folliculitis) is 0.125 to 16 µg/mL; with Kocuria sp. S18-1 it was 0.5 µg/mL (≈ 1.27 µM); in series [2] it was 0.02 µg/mL (≈ 0.0508 µM); in the series with S. epidermidis S1-1, 0.25 µg/mL (≈ 0.635 µM); in the series on K. pneumoniae S6-1, 1 µg/mL (≈ 2.54 µM); with P. avidum S3-1 it was 0.5 µg/mL (≈ 1.27 µM). Moreover, the MIC in series [3] stood at 1 µg/mL (≈ 2.54 µM); in [4], 0.25 µg/mL (≈ 0.635 µM); in series [5] it was 0.13 µg/mL (≈ 0.33 µM); in series [6], 4 µg/mL (≈ 10.2 µM); in [7], 0.25 µg/mL (≈ 0.635 µM); in series [8] it was 0.125 µg/mL (≈ 0.317 µM). Besides, the MIC in series [9] was found to be 1 µg/mL (≈ 2.54 µM); in series [10], 1 µg/mL (≈ 2.54 µM); in [12], 0.125 µg/mL (≈ 0.317 µM); in [13] it was 0.125 µg/mL (≈ 0.317 µM). The “MIC better (lower) compared with conventional antibiotics” value in series [1] (vs cefotaxime, ampicillin, clindamycin, tetracycline and erythromycin) is reported as “at least 50%”. Moreover, the “besifloxacin recovered from receptor solution” value in series [11] is recorded as “negligible amounts”.
